Counter-ions that a name gives are not always drawn. Like-named read-outs stand apart in the source and are kept apart here.
Key:
Format in all cases: cell-based
SUDHL10 cells [1] = assay: Induction of cytotoxicity in SUDHL10 cells (Assay 6); conditions: 5 h, CellTiter-Glo; read-out: Cytotox SUDHL10 IC50 (median)
Method: (§1) Assay 6 Induction of Cytotoxicity Upon Treatment of Cells with Selected Compounds
(§2) In principle, compounds that induce apoptosis will concomitantly induce cell cytotoxicity. Therefore, cytotoxicity assays were run in parallel in SUDHL5 and SUDHL10 cells.
(§3) As a control, medium without cells was also added to the plate. Cells were incubated in a humidified incubator at 37° C. overnight. […] Rim wells were excluded. The cells were incubated for 5 h hours in a humidified incubator at 37° C. After this incubation, 30 μL of CellTiter-Glo® Luminescent Cell Viability reagent (Promega, G7573) was added to each well using the Multidrop Combi Reagent Dispenser, followed by 15 min incubation on a shaker at room temperature. Finally, luminescence was read at 0.1 ms, with a gain of 3000 using the PHERAstar FS microplate reader (BMG Labtech).

HMC-1-8 cells = assay: Antiproliferation assay HMC-1-8 (Assay 7)
Method: (§4) Assessment of the Anti-Proliferative Effect of Compounds in Different Cell Lines
(§5) The impact of compounds on the proliferation of different cell lines was assessed using the CellTiter-Glo® Luminescent Cell Viability reagent from Promega (G7573).
(§6) In parallel, cells were plated in a reference (day 0) plate for time zero determination. Cells were incubated in a humidified incubator at 37° C. overnight.
(§7) Rim wells were excluded. The cells were incubated for 72 h hours in a humidified incubator at 37° C. The day 0 plate was measured by adding 30 μL/well of CTG solution (CellTiter-Glo® Luminescent Cell Viability reagent, Promega G7573) to time zero wells in the reference plate followed by a 10 minutes incubation and luminescence reading at 0.1 ms. using the PHERAstar FS microplate reader (BMG Labtech).
(§8) After 72 h incubation, the treated plates were measured in the same way as the day 0 plate mentioned above. The Bella DRC Master Sheet was used to calculate IC50s, with CI=day 0 values and C0=DMSO control values.

AMO-1 cells = assay: Antiproliferation assay AMO-1 (Assay 7)
Method: as §4, §5, §6, §7, §8

SUDHL10 cells [2] = assay: Induction of caspase-3/7 activity in SUDHL10 cells (Assay 4)
Method: (§9) Induction of Caspase-3/7 Activity Upon Treatment of Cells with Selected Compounds
(§10) The BH3-domain of MCL-1 sequesters pro-apoptotic proteins, thereby inhibiting apoptosis. In contrast, MCL-1 inhibitors are expected to antagonize this effect leading to an increase in apoptosis, which can be determined by measuring the activity of caspase-3/7.
(§11) The activity of caspase-3/7 was determined in DLBCL (Diffuse large B-cell lymphoma) cell lines (SUDHL5 and SUDHL10) upon treatment with different compounds, using the Caspase-Glo® 3/7 reagent from Promega (G8092).
(§12) As a control, medium without cells was also added to the plate. Cells were incubated in a humidified incubator at 37° C. overnight.
(§13) Rim wells were excluded. The cells were incubated for 3 h hours in a humidified incubator at 37° C. After this incubation, 30 μL of Caspase-Glo® 3/7 reagent (Promega G8092) was added to each well using the Multidrop Combi Reagent Dispenser, followed by 1 h incubation at 37° C. Finally, luminescence was read at 0.1 ms, with a gain of 3000 using the PHERAstar FS microplate reader (BMG Labtech).
(§14) For the evaluation of the results, the background measured with “medium-only” was subtracted from all other values. Then, the values were normalized to DMSO-only treated cells (every value was divided by the mean of the DMSO control).

SUDHL5 cells [3] = assay: Antiproliferation assay SUDHL5 (Assay 7)
Method: as §4, §5, §6, §7, §8

SUDHL5 cells [4] = assay: Induction of caspase-3/7 activity in SUDHL5 cells (Assay 4)
Method: as §9, §10, §11, §12, §13, §14

SUDHL5 cells [5] = assay: Induction of cytotoxicity in SUDHL5 cells (Assay 6); conditions: 5 h, CellTiter-Glo; read-out: Cytotox SUDHL5 IC50 (median)
Method: as §1, §2, §3

[6] = 72 h, CellTiter-Glo; read-out: Antiproli HMC-1-8 IC50 median
[7] = 72 h, CellTiter-Glo; read-out: Antiproli AMO-1 IC50 median
[8] = caspase-3/7 induction, 3 h; read-out: Caspase SUDHL10 EC50 (median)
[9] = 72 h, CellTiter-Glo; read-out: Antiproli SUDHL5 IC50 (median)
[10] = caspase-3/7 induction, 3 h; read-out: Caspase SUDHL5 EC50 (median)

Row | SMILES | EC50 (SUDHL10 cells [2]; [8]) [nM] | IC50 (SUDHL5 cells [3]; [9]) [nM] | EC50 (SUDHL5 cells [4]; [10]) [nM] | IC50 (SUDHL10 cells [1]) [nM] | IC50 (HMC-1-8 cells; [6]) [µM] | IC50 (AMO-1 cells; [7]) [µM] | IC50 (SUDHL5 cells [5]) [nM] | IC50 (HMC-1-8 cells; read-out: Antiproli HMC-1-8 IC50 median; 72 h, CellTiter-Glo) [µM] | IC50 (AMO-1 cells; read-out: Antiproli AMO-1 IC50 median; 72 h, CellTiter-Glo) [µM] | EC50 (SUDHL10 cells [2]; read-out: Caspase SUDHL10 EC50 (median); caspase-3/7 induction, 3 h) [nM] | IC50 (SUDHL5 cells [3]; read-out: Antiproli SUDHL5 IC50 (median); 72 h, CellTiter-Glo) [nM] | EC50 (SUDHL5 cells [4]; read-out: Caspase SUDHL5 EC50 (median); caspase-3/7 induction, 3 h) [nM]
1 | CCc1c2c(nn1C)C(CCN1CCOCC1)N(C)CCCCn1c(C(=O)O)c(CCCOc3cccc4ccccc34)c3ccc(Cl)c-2c31 (racemic) [Example 100, (rac)-4-chloro-3-ethyl-2,14-dimethyl-(15-rac)-[2-(morpholin-4-yl)ethyl]-7-{3-[(naphthalen-1-yl)oxy]propyl}-10,11,12,13,14,15-hexahydro-2H-pyrazolo[3′,4′:8,9][1,6]diazacycloundecino[10,11,1-hi]indole-8-carboxylic] | 230 | 260 | 210 | 320 | 3.56 | 0.224 | 340 |  |  |  |  | 
2 | CCc1c2c(nn1C)C(CCN(C)C)OCCCCn1c(C(=O)O)c(CCCOc3cccc4cc(F)ccc34)c3ccc(Cl)c-2c31 (single isomer, unassigned) [Example 82, 4-chloro-15-[2-(dimethylamino)ethyl]-3-ethyl-7-{3-[(6-fluoronaphthalen-1-yl)oxy]propyl}-2-methyl-2,10,11,12,13,15-hexahydropyrazolo[4′,3′:9,10][1,6]oxazacycloundecino[8,7,6-hi]indole-8-carboxylic Acid] | 4500 | 4200 | 2700 | 3100 | > 33 | 7.56 | 2600 |  |  |  |  | 
3 | CCc1c2c(nn1C)C(CCC1CCOCC1)OCCCCn1c(C(=O)O)c(CCCOc3cccc4cc(F)ccc34)c3ccc(Cl)c-2c31 (single isomer, unassigned; enantiomer 2) [Example 64, (−)-4-chloro-3-ethyl-7-{3-[(6-fluoronaphthalen-1-yl)oxy]propyl}-2-methyl-15-[2-(oxan-4-yl)ethyl]-2,10,11,12,13,15-hexahydropyrazolo[4′,3′:9,10][1,6]oxazacycloundecino[8,7,6-hi]indole-8-carboxylic Acid—N-ethylethanamine Salt (Enantiomer 2)] |  |  |  | 2600 |  |  | 810 | 7.51 | 1.03 | 1300 | 1600 | 740
4 | CCc1c2c(nn1C)C(CCN(C)C)OCCCCn1c(C(=O)O)c(CCCOc3cccc4cc(F)ccc34)c3ccc(Cl)c-2c31 (single isomer, unassigned) [Example 85, 4-chloro-15-[2-(dimethylamino)ethyl]-3-ethyl-7-{3-[(6-fluoronaphthalen-1-yl)oxy]propyl}-2-methyl-2,10,11,12,13,15-hexahydropyrazolo[4′,3′:9,10][1,6]oxazacycloundecino[8,7,6-hi]indole-8-carboxylic Acid] | 1600 | 910 | 950 | 2000 | > 33 | 5.17 | 870 |  |  |  |  | 

The remaining molecules from weak to strong by EC50 (SUDHL10 cells [2]; [8]), led by results:

Row | EC50 (SUDHL10 cells [2]; [8]) [nM] | IC50 (SUDHL5 cells [3]; [9]) [nM] | EC50 (SUDHL5 cells [4]; [10]) [nM] | SMILES | IC50 (SUDHL10 cells [1]) [nM] | IC50 (HMC-1-8 cells; [6]) [µM] | IC50 (AMO-1 cells; [7]) [µM] | IC50 (SUDHL5 cells [5]) [nM] | IC50 (HMC-1-8 cells; read-out: Antiproli HMC-1-8 IC50 median; 72 h, CellTiter-Glo) [µM] | IC50 (AMO-1 cells; read-out: Antiproli AMO-1 IC50 median; 72 h, CellTiter-Glo) [µM] | EC50 (SUDHL10 cells [2]; read-out: Caspase SUDHL10 EC50 (median); caspase-3/7 induction, 3 h) [nM] | IC50 (SUDHL5 cells [3]; read-out: Antiproli SUDHL5 IC50 (median); 72 h, CellTiter-Glo) [nM] | EC50 (SUDHL5 cells [4]; read-out: Caspase SUDHL5 EC50 (median); caspase-3/7 induction, 3 h) [nM]
5 | 5400 | 2200 | 3700 | CCc1c2c(nn1C)C(CCN1CC(F)(F)C1)OCCCCn1c(C(=O)O)c(CCCOc3cccc4cc(F)ccc34)c3ccc(Cl)c-2c31 (single isomer, unassigned; (-)) [Example 79, (−)-4-chloro-15-[2-(3,3-difluoroazetidin-1-yl)ethyl]-3-ethyl-7-{3-[(6-fluoronaphthalen-1-yl)oxy]propyl}-2-methyl-2,10,11,12,13,15-hexahydropyrazolo[4′,3′:9,10][1,6]oxazacycloundecino[8,7,6-hi]indole-8-carboxylic Acid—N-ethylethanamine Salt] | 3800 | 23.5 | 3.7 | 4100 |  |  |  |  | 
6 | 5400 | 3100 | 1800 | CCc1c2c(nn1C)C(CCN(C)C)OCCCCn1c(C(=O)O)c(CCCOc3cccc4cc(F)ccc34)c3ccc(Cl)c-2c31 (single isomer, unassigned) [Example 84, 4-chloro-15-[2-(dimethylamino)ethyl]-3-ethyl-7-{3-[(6-fluoronaphthalen-1-yl)oxy]propyl}-2-methyl-2,10,11,12,13,15-hexahydropyrazolo[4′,3′:9,10][1,6]oxazacycloundecino[8,7,6-hi]indole-8-carboxylic Acid] | 4400 | > 33 | 9.56 | 1700 |  |  |  |  | 
7 | 340 | 420 | 230 | CCc1c2c(nn1C)C(CCN(C)C)OCCCCn1c(C(=O)O)c(CCCOc3cccc4cc(F)ccc34)c3ccc(Cl)c-2c31 (single isomer, unassigned) [Example 83, 4-chloro-15-[2-(dimethylamino)ethyl]-3-ethyl-7-{3-[(6-fluoronaphthalen-1-yl)oxy]propyl}-2-methyl-2,10,11,12,13,15-hexahydropyrazolo[4′,3′:9,10][1,6]oxazacycloundecino[8,7,6-hi]indole-8-carboxylic Acid] | 330 | 8.74 | 0.65 | 270 |  |  |  |  | 

From patent publication US11440923B2, “Substituted macrocyclic indole derivatives” (Bayer Aktiengesellschaft, priority 2017, dated 2022)
